One block for each compound: values may come before it.
Tests used:
[1] = In vitro dicamba photo-release from photo-labile dicamba esters, tetrahydrofuran solvent (Example 26); type: physicochemical
Description: (§1) This Example describes in vitro testing of dicamba photo-release by homogeneous solutions of photo-labile dicamba esters. The esters were dissolved in tetrahydrofuran (THF). Ester concentration was 0.1 mM. 25 ml of the solution was transferred to 22 mm tubes fabricated from graded seal quartz tubing with a 19/22 tapered seal at the top, which was closed with a tapered glass plug and secured with a plastic ring clamp. The solution was entirely below the quartz-to-glass transition, ensuring that the entire volume was exposed to the full spectrum.
(§2) The sealed tubes were placed in a Growth Chamber where they were exposed to simulated sunlight for 14 hours per day at 35° C. Dicamba concentrations in the solution were measured during the course of the photolysis.
(§3) A sample of the initial solution was reserved in a glass vial away from the light source and analyzed at the conclusion of the study, providing a measurement of the amount of dicamba present without illumination of the photolysis solution (the “dark control”).

velvetleaf [2] = test: Greenhouse post-emergent control of velvetleaf by emulsifiable concentrates (Example 29); type: in vivo; details: three weeks after treatment
Description: (§4) The efficacy of some photo-labile ester formulations from Example 28 for post-emergent control of velvetleaf was tested in the greenhouse. All formulations were tested at rates of 140, 280, 420, and 560 g dicamba equivalent per hectare rates and compared to the diglycolamine salt of dicamba (CLARITY®) at the same rates and untreated control plants. The velvetleaf plants were 10-15 cm in height at the time of spraying. Percent control was evaluated three weeks after treatment.

hemp sesbania = test: Field testing of emulsifiable concentrates, post-emergent control (Example 38); type: in vivo
From the text: (§5) Four dicamba esters, 1a, 2, 9, and 13a, were formulated as emulsifiable concentrates for field testing. All formulations contained 5% each of a alkylbenzene sulfonate calcium salt (Huntsman NANSA EVM 62/H or Akzo Nobel WITCONATE P-1220 EH) and castor oil ethoxylate (Huntsman SURFONIC CO-54) as the emulsifiers and Aromatic 200 (Exxon) or monochlorobenzene (MCB) as the solvent.
(§6) The esters were compared to the diglycolamine salt of dicamba (CLARITY™) for post-emergent control of three broadleaf weeds: velvetleaf, morning glory, and hemp sesbania. Rates of 280 and 420 g dicamba acid equivalent per hectare were used. […] Evaluations were conducted at 11 or 21 days after treatment. Locations and timing were identical for all formulations tested.

morning glory = test: as above; type: in vivo
From the text: as §5, §6

velvetleaf [3] = test: as above; type: in vivo
From the text: as §5, §6

Euphorbia species = test: Field testing for post-emergent activity in the Southern Hemisphere (Example 39); type: in vivo; details: 9 as suspension concentrate, other esters as emulsifiable concentrates; for % control, 0.25 lb/ac (0.28 kg/hectare): 0.25 lb dicamba a.e. per acre; for % control, 0.50 lb/ac (0.56 kg/hectare): 0.50 lb dicamba a.e. per acre
Description: The primary weeds were Euphorbia species. Ester 9 was tested as a suspension concentrate using the formulation of Example 33 The other esters were tested as emulsifiable concentrates having the formulations shown in the table below. Akzo Nobel SPONTO EC 334 and SPONTO EC 336 along with SURFONIC CO-54 and […] (Huntsman) were used as emulsifiers and Aromatic 200 (A 200; Exxon) was used as the solvent. […] The diglycolamine salt of dicamba (CLARITYTM) was used as a comparator.

[4] = Solubility of the esters (statements of the description); type: physicochemical; details: qualitative
[5] = Photolysis / cleavage of the esters to dicamba (statements of the description); type: physicochemical; details: qualitative
From the text: The efficacy of the photolabile esters can be assayed in vitro, or in greenhouse or field experiments. A useful in vitro assay for post-emergent activity involves photolysis of a dilute solution of the esters using simulated sunlight. This is conveniently achieved by photolysis of a solution of the ester in an organic solvent which is miscible with water and to which some water has been added. As described in the Examples, photolysis in acetonitrile or tetrahydrofuran containing 10% water by weight is effective. Low concentrations of the ester should be used so that the entire volume is exposed to sunlight. Since the maximum extinction coefficient of the typical esters above 220 nm is in the range of 1000-10,000 M^−1 cm^−1, a concentration of 0.1 mM is effective. Photolysis in a quartz tube exposed to simulated or actual sunlight is a typical protocol.

broadleaf weeds = test: Control of broadleaf weeds by ester concentrates (statements of the description); type: in vivo; details: emulsifiable and suspension concentrates; Sesbania macrocarpa, morning glory, velvetleaf, Palmer amaranth, fat hen, sicklepod
[6] = In vitro dicamba photo-release from photo-labile dicamba esters, acetonitrile/10% water solvent (Example 27); type: physicochemical; details: acetonitrile containing 10% water
Description: as §1, §2, §3
This Example is another photolysis of photo-labile dicamba esters, but using acetonitrile containing 10% water by weight as the solvent. The experimental protocol is otherwise the same as in Example 18.

[7] = In vitro photo-release and hydrolytic release of dicamba in an aqueous medium (Example 36); type: physicochemical; details: 0.01 mM (0.005 mM for diesters)
Description: This Example describes the determination of photo-lability and hydrolytic lability of dicamba esters in an aqueous medium. 1 mM solutions of the esters were prepared in acetonitrile (or […] solutions of dicamba diesters). The solutions were then diluted with deionized water to a concentration of 0.01 mM (or 0.005 mM for diesters). The solutions were then transferred to quartz tubes and amber bottles and held in a growth chamber by the procedure of Example 26. A 14-hour day was generally used at a constant temperature of 35° C. Hydrolytic activity was assessed by measuring the increase in dicamba concentration after day zero in the amber (dark) bottles. […] Photolysis manifested itself as increased conversion in the quartz tubes compared to the dark control.
This Example provides the results of an aqueous lability test following the protocol of Example 35 for several dicamba esters which convert to dicamba primarily by hydrolysis. As shown by the results in the table below, conversion of the dark controls generally equaled or exceeded conversion in the photolysis solutions.

velvetleaf [8] = test: Greenhouse post-emergent control of velvetleaf by emulsifiable concentrates (Example 37); type: in vivo; details: Abutilon theophrasti, post-emergence, 504 h, greenhouse, Example 37
Description: as §4
The methodology of Example 29 was used to evaluate the efficacy of several esters of dicamba which convert to dicamba by hydrolysis for post-emergent control of velvetleaf as emulsifiable concentrate formulations.

[9] = 280 and 420 g dicamba acid equivalent per hectare
[10] = 280 g dicamba acid equivalent per hectare, 11 or 21 days after treatment
[11] = 420 g dicamba acid equivalent per hectare, 11 or 21 days after treatment

Compound: COc1ccc(C(=O)COC(=O)c2c(Cl)ccc(Cl)c2OC)cc1 [Ester 9, 4-methoxyphenacyl methyl ester of dicamba]
Dark Control % dicamba ([1]; THF, 0.1 mM ester, initial solution kept away from the light source, analyzed at conclusion of study): 1%
Conversion to dicamba, 1 day ([1]; THF, 0.1 mM ester, simulated sunlight 14 hours per day, 35° C., 1 day): 76%
Conversion to dicamba, 2 days ([1]; THF, 0.1 mM ester, simulated sunlight 14 hours per day, 35° C., 2 days): 91%
Conversion to dicamba, 3 days ([1]; THF, 0.1 mM ester, simulated sunlight 14 hours per day, 35° C., 3 days): 90%
Conversion to dicamba, 5 days ([1]; THF, 0.1 mM ester, simulated sunlight 14 hours per day, 35° C., 5 days): 89%
Conversion to dicamba, 7 days ([1]; THF, 0.1 mM ester, simulated sunlight 14 hours per day, 35° C., 7 days): 89%
photo-efficiency of dicamba generation ([1]; in vitro studies): ~100%
% Control of velvetleaf, 140 g/ha (velvetleaf [2]; 140 g dicamba equivalent per hectare): 23%
% Control of velvetleaf, 280 g/ha (velvetleaf [2]; 280 g dicamba equivalent per hectare): 19%
% Control of velvetleaf, 420 g/ha (velvetleaf [2]; 420 g dicamba equivalent per hectare): 28%
% Control of velvetleaf, 560 g/ha (velvetleaf [2]; 560 g dicamba equivalent per hectare): 29%
post-emergent control of hemp sesbania compared with the dicamba salt, in words (hemp sesbania; [9]): equivalent to the dicamba salt
% control, 280 g/ha, Hemp sesbania (hemp sesbania; [10]): 86%
% control, 420 g/ha, Hemp sesbania (hemp sesbania; [11]): 93%
post-emergent control of morning glory compared with the dicamba salt, in words (morning glory; [9]): equivalent to the dicamba salt
% control, 280 g/ha, Morning glory (morning glory; [10]): 98%
% control, 420 g/ha, Morning glory (morning glory; [11]): 100%
post-emergent control of velvetleaf compared with the dicamba salt, in words (velvetleaf [3]; [9]): nearly equivalent to the dicamba salt
% control, 280 g/ha, Velvetleaf (velvetleaf [3]; [10]): 79%
% control, 420 g/ha, Velvetleaf (velvetleaf [3]; [11]): 80%
% control, 0.25 lb/ac (0.28 kg/hectare) (Euphorbia species): 54%
% control, 0.50 lb/ac (0.56 kg/hectare) (Euphorbia species): 62%
solubility, in words [4]: relatively insoluble
photolysis / photo-release of dicamba, in words [5]: efficient photo-release of 9 in a suspension concentrate formulation occurs over several weeks
control of a number of broadleaf weeds in field testing, in words (broadleaf weeds): proven effective

Dark Control % dicamba ([6]; no illumination): 0%
Conversion to dicamba, 1 day ([6]; simulated sunlight, 1 day): 6%
Conversion to dicamba, 2 days ([6]; simulated sunlight, 2 days): 9%
Conversion to dicamba, 3 days ([6]; simulated sunlight, 3 days): 10%
Conversion to dicamba, 5 days ([6]; simulated sunlight, 5 days): 12%
Conversion to dicamba, 7 days ([6]; simulated sunlight, 7 days): 12%
Conversion to dicamba, 11 days ([6]; simulated sunlight, 11 days): 19%
Conversion to dicamba, 13 days ([6]; simulated sunlight, 13 days): 21%
Conversion to dicamba, 15 days ([6]; simulated sunlight, 15 days): 25%
Conversion to dicamba, 19 days ([6]; simulated sunlight, 19 days): 26%
Conversion to Dicamba, Dark, Day 0 ([7]; amber (dark) bottle, Day 0): 2%
Conversion to Dicamba, Dark, Day 1 ([7]; amber (dark) bottle, Day 1): 68%
Conversion to Dicamba, Dark, Day 2 ([7]; amber (dark) bottle, Day 2): 81%
Conversion to Dicamba, Dark, Day 3 ([7]; amber (dark) bottle, Day 3): 84%
Conversion to Dicamba, Dark, Day 4 ([7]; amber (dark) bottle, Day 4): 86%
Conversion to Dicamba, Dark, Day 7 ([7]; amber (dark) bottle, Day 7): 92%
Conversion to Dicamba, Dark, Day 14 ([7]; amber (dark) bottle, Day 14): 90%
Conversion to Dicamba, Dark, Day 21 ([7]; amber (dark) bottle, Day 21): 91%
Conversion to Dicamba, Dark, Day 28 ([7]; amber (dark) bottle, Day 28): 97%
Conversion to Dicamba, Light, Day 0 ([7]; quartz tube, Day 0): 2%
Conversion to Dicamba, Light, Day 1 ([7]; quartz tube, Day 1): 61%
Conversion to Dicamba, Light, Day 2 ([7]; quartz tube, Day 2): 63%
Conversion to Dicamba, Light, Day 3 ([7]; quartz tube, Day 3): 64%
Conversion to Dicamba, Light, Day 4 ([7]; quartz tube, Day 4): 68%
Conversion to Dicamba, Light, Day 7 ([7]; quartz tube, Day 7): 67%
Conversion to Dicamba, Light, Day 14 ([7]; quartz tube, Day 14): 71%
Conversion to Dicamba, Light, Day 21 ([7]; quartz tube, Day 21): 71%
Conversion to Dicamba, Light, Day 28 ([7]; quartz tube, Day 28): 75%
solubility, in words [4]: readily soluble in organic solvents
Compound: COc1c(Cl)ccc(Cl)c1C(=O)Oc1ccccn1 [Ester 14, 2-Hydroxypyridine Ester of Dicamba]
pest or weed control at 140 g/ha (velvetleaf [8]; 140 g/ha, read-out: % Control of velvetleaf, 140 g/ha): 40%
pest or weed control at 280 g/ha (velvetleaf [8]; 280 g/ha, read-out: % Control of velvetleaf, 280 g/ha): 58.3%
pest or weed control at 420 g/ha (velvetleaf [8]; 420 g/ha, read-out: % Control of velvetleaf, 420 g/ha): 80.8%
pest or weed control at 560 g/ha (velvetleaf [8]; 560 g/ha, read-out: % Control of velvetleaf, 560 g/ha): 85%
% control, 0.25 lb/ac (0.28 kg/hectare) (Euphorbia species): 47%
% control, 0.50 lb/ac (0.56 kg/hectare) (Euphorbia species): 56%
cleavage to form dicamba, in words [5]: undergoes efficient cleavage to form dicamba
control of a number of broadleaf weeds in field testing, in words (broadleaf weeds): proven effective

From patent US20170029355A1, “LABILE ESTERS OF AGROCHEMICALS FOR CONTROLLED RELEASE AND REDUCTION OF OFF-SITE MOVEMENT” (Monsanto Technology LLC, priority 2011, published 2017)
